Results: article PMC10139140, “Synthesis of Novel 2-(Cyclopentylamino)thiazol-4(5H)-one Derivatives with Potential Anticancer, Antioxidant, and 11β-HSD Inhibitory Activities” (International Journal of Molecular Sciences, 2023)
One block for each compound: values may come before it.

Legend:
11β-HSD2 = target: T1, 11β-HSD2 (Homo sapiens, UniProt P80365); experiment: Inhibition of 11β-HSD2 (cortisol to cortisone, human microsomes, cortisol ELISA); format: biochemical; settings: 2.5 h, 37 °C
T1 construct: Human liver microsomes were used as a source of 11β-HSD2 enzyme; tissue XenoTech Lot No. 1710160; host or cells: human kidney microsomes, mixed gender (method text says human liver microsomes)
T1 sequence (P80365 1-405): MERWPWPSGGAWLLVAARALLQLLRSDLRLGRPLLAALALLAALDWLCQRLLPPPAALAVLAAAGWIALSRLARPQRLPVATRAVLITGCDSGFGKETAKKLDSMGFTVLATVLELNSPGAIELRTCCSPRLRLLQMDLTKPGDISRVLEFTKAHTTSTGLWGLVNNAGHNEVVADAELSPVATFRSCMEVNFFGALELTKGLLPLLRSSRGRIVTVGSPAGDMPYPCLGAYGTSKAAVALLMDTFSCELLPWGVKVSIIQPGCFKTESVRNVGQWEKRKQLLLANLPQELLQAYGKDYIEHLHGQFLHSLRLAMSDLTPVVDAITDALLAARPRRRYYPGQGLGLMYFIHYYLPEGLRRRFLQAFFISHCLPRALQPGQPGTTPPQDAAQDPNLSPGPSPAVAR
Method: The resulting solution with a final volume of 100 µL was incubated for 2.5 h at 37 °C. […] The level of unreacted cortisol was measured by a commercially available ELISA kit.

[1] = system: human colon carcinoma (Caco-2); experiment: MTS metabolic activity assay, Caco-2 cells; format: cell-based; settings: Homo sapiens, 72 h, read-out: Cell metabolic activity (MTS), % of untreated control; for viability at 10 µM: Caco-2, 10 µM; for viability at 20 µM: Caco-2, 20 µM; for viability at 50 µM: Caco-2, 50 µM; for viability at 100 µM: Caco-2, 100 µM; for viability at 200 µM: Caco-2, 200 µM; for viability at 300 µM: Caco-2, 300 µM; for viability at 500 µM: Caco-2, 500 µM
Method: (§1) The BJ (CRL-2522), Caco-2 (HTB-37), PANC-1 (CRL-1469), U-118 MG (HTB-15), SK-MEL-30 (ACC 151), and MDA-MB-231 (HTB-26) cell lines were purchased from ATCC (Manassas, VA, USA) or DSMZ (Braunschweig, GERMANY). Cells were cultured in accordance with manufacturers' recommendations in a DMEM, MEM, or RPMI-1640 (Sigma, Saint Louis, MO, USA; Gibco, Waltham, MA, USA), supplemented with 10% FBS, except for Caco-2 (20%) (Thermo Fisher Scientific, Waltham, MA, USA) and 1% antibiotic mix solution (penicillin, streptomycin; Thermo Fisher Scientific, Waltham, MA, USA) in a humidified atmosphere with 5% CO2 at 37 °C. All cell lines were cultured in T75 cell culture flasks or cell culture dishes to reach 80–90% confluency and seeded at a standard density of 5 × 10^3 cells/0.32 cm^2, except for BJ cells at 2 × 10^3 cells/0.32 cm^2.
(§2) The MTS ((MTS: 3-(4,5-dimethylthiazol-2-yl)-5-(3-carboxymethoxyphenyl)-2-(4-sulfophenyl)-2H-tetrazolium)) assay was performed following previously reported method. Briefly, cells were seeded at a standard density into 96-well flat-bottom plates and incubated for 24 h, followed by the treatment. The various concentrations of compounds were prepared and treated for the next 72 h. MTS solution was added for 3h and incubated at standard conditions, protected from light. Finally, the absorbance was read at […] and 620 nm wavelengths using a Synergy H1 microplate reader (BioTek, Santa Clara, CA, USA). The results are presented as %, while untreated control cells were considered 100%.

glioma (U-118 MG) = experiment: MTS metabolic activity assay, U-118 MG cells; format: cell-based; settings: 72 h; for viability at 10 µM / viability at 20 µM / viability at 50 µM / viability at 100 µM / viability at 200 µM / viability at 300 µM / viability at 500 µM: Homo sapiens, U-118-MG, U118-MG, read-out: Cell metabolic activity (MTS), % of untreated control
Method: as §1, §2

[2] = system: skin melanoma (SK-MEL-30); experiment: MTS metabolic activity assay, SK-MEL-30 cells; format: cell-based; settings: Homo sapiens, 72 h, read-out: Cell metabolic activity (MTS), % of untreated control; for viability at 10 µM: SK-MEL-30, 10 µM; for viability at 20 µM: SK-MEL-30, 20 µM; for viability at 50 µM: SK-MEL-30, 50 µM; for viability at 100 µM: SK-MEL-30, 100 µM; for viability at 200 µM: SK-MEL-30, 200 µM; for viability at 300 µM: SK-MEL-30, 300 µM; for viability at 500 µM: SK-MEL-30, 500 µM
Method: as §1, §2

BJ cells = experiment: MTS metabolic activity assay, BJ cells; format: cell-based; settings: Homo sapiens, 72 h, read-out: Cell metabolic activity (MTS), % of untreated control
Method: as §1, §2

[3] = system: human breast carcinoma (MDA-MB-231); experiment: MTS metabolic activity assay, MDA-MB-231 cells; format: cell-based; settings: Homo sapiens, 72 h, read-out: Cell metabolic activity (MTS), % of untreated control; for viability at 10 µM: MDA-MB-231, 10 µM; for viability at 20 µM: MDA-MB-231, 20 µM; for viability at 50 µM: MDA-MB-231, 50 µM; for viability at 100 µM: MDA-MB-231, 100 µM; for viability at 200 µM: MDA-MB-231, 200 µM; for viability at 300 µM: MDA-MB-231, 300 µM; for viability at 500 µM: MDA-MB-231, 500 µM
Method: as §1, §2

[4] = system: human pancreatic carcinoma (PANC-1); experiment: MTS metabolic activity assay, PANC-1 cells; format: cell-based; settings: Homo sapiens, 72 h, read-out: Cell metabolic activity (MTS), % of untreated control; for viability at 10 µM: PANC-1, 10 µM; for viability at 20 µM: PANC-1, 20 µM; for viability at 50 µM: PANC-1, 50 µM; for viability at 100 µM: PANC-1, 100 µM; for viability at 200 µM: PANC-1, 200 µM; for viability at 300 µM: PANC-1, 300 µM; for viability at 500 µM: PANC-1, 500 µM
Method: as §1, §2

11β-HSD1 = target: T2, 11β-HSD1 (Homo sapiens, UniProt P28845); experiment: Inhibition of 11β-HSD1 (cortisone to cortisol, human liver microsomes, cortisol ELISA); format: biochemical; settings: for inhibition at 10 µM: 2.5 h, 37 °C
T2 construct: Human liver microsomes were used as a source of 11β-HSD1 enzyme; tissue XenoTech Lot No. 1410013; host or cells: pooled human liver microsomes, mixed gender
T2 sequence (P28845 whole entry): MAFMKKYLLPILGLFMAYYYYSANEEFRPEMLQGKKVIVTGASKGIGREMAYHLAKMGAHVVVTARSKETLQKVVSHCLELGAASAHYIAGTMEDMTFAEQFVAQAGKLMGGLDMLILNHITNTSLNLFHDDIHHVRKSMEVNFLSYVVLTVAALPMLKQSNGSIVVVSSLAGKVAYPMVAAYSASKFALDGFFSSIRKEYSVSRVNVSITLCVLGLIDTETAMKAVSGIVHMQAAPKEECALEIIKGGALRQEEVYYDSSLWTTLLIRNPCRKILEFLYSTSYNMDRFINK
Outline: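 Human liver microsomal conversion of cortisone to cortisol, incubated 2.5 h at 37 °C and stopped with 18β-glycyrrhetinic acid. Cortisol was quantified by ELISA against inhibitor-free controls.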

inhibition at 10 µM (11β-HSD2): 38.6 ± 3.69%
IC50 (11β-HSD1): 460 ± 70 nM
inhibition at 10 µM (11β-HSD1): 82.9 ± 2.62%
SMILES: CC(C)C1SC(NC2CCCC2)=NC1=O (stereo not shown) [Compound 3d, 2-(cyclopentylamino)-5-isopropylthiazol-4(5H)-one]
viability at 10 µM [1]: 88.8%
viability at 20 µM [1]: 82.8%
viability at 50 µM [1]: 90.8%
viability at 100 µM [1]: 83.1%
viability at 200 µM [1]: 84.8%
viability at 300 µM [1]: 85.3%
viability at 500 µM [1]: 70.1%
viability at 10 µM (glioma (U-118 MG)): 118%
viability at 20 µM (glioma (U-118 MG)): 111%
viability at 50 µM (glioma (U-118 MG)): 114%
viability at 100 µM (glioma (U-118 MG)): 112%
viability at 200 µM (glioma (U-118 MG)): 114%
viability at 300 µM (glioma (U-118 MG)): 115%
viability at 500 µM (glioma (U-118 MG)): 120%
highest increase in proliferation (cell metabolic activity) (glioma (U-118 MG); U-118 MG, range given for the named substances together): 115 to 144%
viability at 10 µM [2]: 97.2%
viability at 20 µM [2]: 97.1%
viability at 50 µM [2]: 97.7%
viability at 100 µM [2]: 102%
viability at 200 µM [2]: 92.3%
viability at 300 µM [2]: 78.2%
viability at 500 µM [2]: 59.4%
viability at 10 µM (BJ cells): 109%
viability at 20 µM (BJ cells): 106%
viability at 50 µM (BJ cells): 109%
viability at 100 µM (BJ cells): 110%
viability at 200 µM (BJ cells): 116%
viability at 300 µM (BJ cells): 118%
viability at 500 µM (BJ cells): 118%
viability at 10 µM [3]: 92.8%
viability at 20 µM [3]: 91.2%
viability at 50 µM [3]: 95.5%
viability at 100 µM [3]: 94.4%
viability at 200 µM [3]: 86.6%
viability at 300 µM [3]: 81.8%
viability at 500 µM [3]: 57.6%
viability at 10 µM [4]: 107%
viability at 20 µM [4]: 103%
viability at 50 µM [4]: 105%
viability at 100 µM [4]: 116%
viability at 200 µM [4]: 113%
viability at 300 µM [4]: 119%
viability at 500 µM [4]: 118%

inhibition at 10 µM (11β-HSD2): 36.6 ± 1.5%
IC50 (11β-HSD1): 4400 ± 150 nM
inhibition at 10 µM (11β-HSD1): 53.2 ± 5.22%
SMILES: CC1(C)SC(NC2CCCC2)=NC1=O [Compound 3e, 2-(cyclopentylamino)-5,5-dimethylthiazol-4(5H)-one]
viability at 10 µM [1]: 99.9%
viability at 20 µM [1]: 86.5%
viability at 50 µM [1]: 86.7%
viability at 100 µM [1]: 83.4%
viability at 200 µM [1]: 80.2%
viability at 300 µM [1]: 75.6%
viability at 500 µM [1]: 64.1%
viability at 10 µM (glioma (U-118 MG)): 110%
viability at 20 µM (glioma (U-118 MG)): 110%
viability at 50 µM (glioma (U-118 MG)): 116%
viability at 100 µM (glioma (U-118 MG)): 111%
viability at 200 µM (glioma (U-118 MG)): 112%
viability at 300 µM (glioma (U-118 MG)): 109%
viability at 500 µM (glioma (U-118 MG)): 106%
viability at 10 µM [2]: 102%
viability at 20 µM [2]: 100%
viability at 50 µM [2]: 103%
viability at 100 µM [2]: 106%
viability at 200 µM [2]: 106%
viability at 300 µM [2]: 104%
viability at 500 µM [2]: 104%
viability at 10 µM (BJ cells): 107%
viability at 20 µM (BJ cells): 109%
viability at 50 µM (BJ cells): 112%
viability at 100 µM (BJ cells): 114%
viability at 200 µM (BJ cells): 117%
viability at 300 µM (BJ cells): 119%
viability at 500 µM (BJ cells): 108%
viability at 10 µM [3]: 96.3%
viability at 20 µM [3]: 100%
viability at 50 µM [3]: 103%
viability at 100 µM [3]: 95.7%
viability at 200 µM [3]: 93.7%
viability at 300 µM [3]: 90.6%
viability at 500 µM [3]: 85.2%
viability at 10 µM [4]: 110%
viability at 20 µM [4]: 101%
viability at 50 µM [4]: 110%
viability at 100 µM [4]: 112%
viability at 200 µM [4]: 120%
viability at 300 µM [4]: 122%
viability at 500 µM [4]: 127%
